Counter-ions that a name gives are not always drawn.
Assays:
[1] = tested on: urinary incontinence and/or urinary urgency; experiment: Treatment of patients presenting urinary incontinence and/or urinary urgency (case examples)
Procedure: The patient stops taking the daily dosages.
The complaints include urinary incontinence and/or urinary urgency (awake and sleeping).
The patient is treated with a total daily dose of medicine, which includes 50 mg of tricyclic antidepressant (imipramine hydrochloride) and 300 mg of stool softener (docusate sodium).
The complaints include chronic urinary incontinence and/or urinary urgency.
The patient is treated with a total daily dose of medicine, which includes 50 mg of imipramine hydrochloride and 350 mg of stool softener (docusate sodium), ingested separately.
The complaints include chronic, intermittent urinary incontinence and urinary urgency.
The patient is treated with a total daily dose of medicine, which includes an admixture of 25 mg of imipramine hydrochloride and 275 mg of stool softener (docusate sodium).

[2] = tested on: urinary incontinence; experiment: Treatment of a group of cats and dogs presenting urinary incontinence; assay type: in vivo; conditions: admixture of 5 mg/day imipramine hydrochloride and 100 mg stool softener (or by weight), oral, after several days; group of twenty cats and dogs
From the text: A group of twenty mammals, including female and male cats and dogs, present with urinary incontinence.

[3] = Side effects reported by treated patients

SMILES | control of bladder functions (awake and sleeping) noted by patient ([1]; 50 mg/day imipramine hydrochloride and 300 mg docusate sodium, oral, after several days) | control of bladder functions (awake and sleeping) noted by patient ([1]; 50 mg/day imipramine hydrochloride and 350 mg docusate sodium, ingested separately, oral, after several days) | control of bladder functions (awake and sleeping) noted by patient ([1]; 75 mg/day imipramine hydrochloride (25 mg/3 times daily) and a stool softener, oral, after several days) | control of bladder functions (awake and sleeping) noted by patient ([1]; admixture of 25 mg/day imipramine hydrochloride and 275 mg docusate sodium, oral, after several days) | reduction or elimination of urinary incontinence [2] | adverse side effects ([3]; 75 mg/day imipramine hydrochloride (25 mg/3 times daily) and a stool softener, oral) | adverse side effects ([3]; admixture of 25 mg/day imipramine hydrochloride and 275 mg docusate sodium, selective beta-blocker given as needed) | control of bladder functions noted by patient ([1]; 75 mg/day imipramine pamoate without stool softener, oral, after several days) | recurrence of symptoms after stopping daily dosages ([1]; after about three days without treatment) | adverse side effects ([3]; 75 mg/day imipramine pamoate without stool softener, oral)
CN(C)CCCN1c2ccccc2CCc2ccccc21 [imipramine hydrochloride, Imipramine hydrochloride] | full control of bladder functions | partial to full control of bladder functions | partial to full control of bladder functions | partial to full control of bladder functions | reduction or elimination of urinary incontinence for a significant portion of the members of the group | tolerates a dry mouth | tachycardia | – | – | –
CN(C)CCCN1c2ccccc2CCc2ccccc21.CN(C)CCCN1c2ccccc2CCc2ccccc21.O=C(O)c1cc2ccccc2c(Cc2c(O)c(C(=O)O)cc3ccccc23)c1O [imipramine pamoate, 5-[3-(dimethylamino)]propyl-10,11-dihydro-5H-dibenzazepine 4,4-methlyenebis-(3-hydroxy-2-napthoate)] | – | – | – | – | – | – | – | full control of bladder functions | bladder urgency and incontinence recur | develops constipation

Reference: patent US20060148782A1, “Method and medicine for treating a mammal presenting urinary incontinence, urinary urgency, or both” (priority 2003, published 2006)
